Test results taken from ChEMBL document CHEMBL1201862, “PubChem BioAssay data set” (2004).
Structures can show the parent of a compound that is named as a salt.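 How tested: cells in 96-well plates exposed to compound for 48 hours at five concentrations. GI50 is the concentration that inhibits growth by half.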 Active and inactive are the calls of the source. Rule as the data show it: active = GI50 up to about 1.1 µM and inactive = higher.

How the values were obtained:
Assay in all cases: NCI tumour cell line growth inhibition, 48 h
NCI/ADR-RES = tested on: NCI/ADR-RES
SK-OV-3 = tested on: SK-OV-3
SR = tested on: SR
UACC-62 = tested on: UACC-62
SK-MEL-28 = tested on: SK-MEL-28
CCRF-CEM = tested on: CCRF-CEM
SF-539 = tested on: SF-539
HOP-92 = tested on: HOP-92
NCI-H460 = tested on: NCI-H460
HT-29 = tested on: HT-29
M19-MEL = tested on: M19-MEL
BT-549 = tested on: BT-549
A498 = tested on: A498
SK-MEL-2 = tested on: SK-MEL-2
Hs-578T = tested on: Hs-578T
HCC 2998 = tested on: HCC 2998
PC-3 = tested on: PC-3
IGROV-1 = tested on: IGROV-1
EKVX = tested on: EKVX
786-0 = tested on: 786-0

SMILES | GI50 (NCI/ADR-RES) | GI50 (SK-OV-3) | GI50 (SR) | GI50 (UACC-62) | GI50 (SK-MEL-28) | GI50 (CCRF-CEM) | GI50 (SF-539) | GI50 (HOP-92) | GI50 (NCI-H460) | GI50 (HT-29) | GI50 (M19-MEL) | GI50 (BT-549) | GI50 (A498) | GI50 (SK-MEL-2) | GI50 (Hs-578T) | GI50 (HCC 2998) | GI50 (PC-3) | GI50 (IGROV-1) | GI50 (EKVX) | GI50 (786-0)
Cc1n(CC(C)C)c2c([n+]1C)C(=O)c1ccccc1C2=O | 2430 nM (inactive) | 350 nM (active) | 301 nM (active) | 198 nM (active) | 1060 nM (active) | 122 nM (active) | 47.9 nM (active) | 641 nM (active) | 135 nM (active) | 24.1 nM (active) | 71.9 nM (active) | 227 nM (active) | 320 nM (active) | 130 nM (active) | 565 nM (active) | 108 nM (active) | 34.8 nM (active) | 22.4 nM (active) | 63.1 nM (active) | 578 nM (active)
O=C1C(Br)=CC2(C=C1Br)CCNC1=C2C2=NCCc3c[nH]c(c32)C1=O | 164 nM (active) | 1900 nM (inactive) | 43.1 nM (active) | 93.3 nM (active) | 163 nM (active) | 19.8 nM (active) | 246 nM (active) | 81.7 nM (active) | 548 nM (active) | 27.5 nM (active) | 27.5 nM (active) | 212 nM (active) | 1230 nM (inactive) | 183 nM (active) | 445 nM (active) | 506 nM (active) | 307 nM (active) | 153 nM (active) | 231 nM (active) | 124 nM (active)
CC(=O)N(C)c1ccc(Nc2cc(C)nc3ccc4nc[nH]c4c23)cc1 [ACODAZOLE HYDROCHLORIDE] | 156000 nM (inactive) | 10500 nM (inactive) | 3290 nM (inactive) | 10200 nM (inactive) | 15100 nM (inactive) | 3010 nM (inactive) | 7380 nM (inactive) | 2550 nM (inactive) | 2590 nM (inactive) | 11300 nM (inactive) | 8970 nM (inactive) | 10000 nM (inactive) | 10400 nM (inactive) | 10800 nM (inactive) | 9140 nM (inactive) | 10300 nM (inactive) | 5090 nM (inactive) | 12400 nM (inactive) | 18700 nM (inactive) | 4810 nM (inactive)
